Experimental data reported in publication PMC4859609, “Inhibition and Larvicidal Activity of Phenylpropanoids from Piper sarmentosum on Acetylcholinesterase against Mosquito Vectors and Their Binding Mode of Interaction” (PLoS ONE, 2016).

How the values were obtained:
[1] = system: Aedes aegypti larvae; assay: Larval bioassay (WHO larvicidal procedure), late 3rd or early 4th larvae; details: 24 hours; for dosage that can cause 50% mortality: larvae
Description: (§1) All tested insects used for the experiments were obtained from colonies cultured in the laboratory at 27 ± 2°C and 65 ± 5% relative humidity. To determine the susceptibility, three species of adult mosquitoes and larvae of Ae. aegypti, Ae. albopictus and Cx. quinquefasciatus were used as sample and were measured over a period of 1 year (2012–2013) in this study. Each different species was categorized and reared in laboratory as laboratory strains. Ae. aegypti, Ae. albopictus and Cx. quinquefasciatus were collected from cemetery near the Malaysia International Airport KLI, 2011. Mosquito larvae were placed in plastic containers located in cages (23cm x 23cm x 23cm) at laboratory condition with a photoperiod of 13 hours of daylight and 11 hours of darkness for emergence.
(§2) The larval bioassay was performed on late 3rd or early 4th larvae of Ae. aegypti, Ae. albopictus and Cx. quinquefasciatus according to the WHO larvicidal activity standard procedure. 15 mg of asaricin 1, isoasarone 2 and trans-asarone 3 were separately dissolved in 1 mL of acetone as stock solution and several concentrations (4 to 20 μg/mL) were prepared through serial dilution by mixing specific amount of stock solution with 250mL distilled water. Twenty five larvae of Ae. aegypti, Ae. albopictus and Cx. quinquefasciatus were separately introduced into the plastic cups containing appropriate concentrations of asaricin 1, isoasarone 2 and trans-asarone 3. Control was only treated with 1 mL acetone added to 250mL distilled water. Mortality of the tested larvae was recorded at the end of 24 hours. Each treatment was replicated four times.
(§3) %larvae mortality=Number of dead larvae/Total number of introduced larvae×100%

[2] = system: Aedes albopictus larvae; assay: as above; details: 24 hours; for dosage that can cause 50% mortality: larvae
Description: as §1, §2, §3

[3] = system: Culex quinquefasciatus larvae; assay: as above; details: for mortality at 9.3 µg/mL: Culex quinquefasciatus, 24 h, read-out: % larvae mortality; for dosage that can cause 50% mortality: larvae; for dosage that can cause 50% mortality / % larvae mortality: 24 hours; for % larvae mortality: ≤ 15 μg/mL
Description: as §1, §2, §3

[4] = system: blood-starved female Ae. aegypti; assay: Repellent activity (WHO procedure, treated forearm in cage); assay type: in vivo, Aedes aegypti; details: for % repellency: 300 μg/mL
Description: (§4) This study was carried out according to the method described by WHO standard procedure. Three-day-old blood-starved female of Ae.aegypti, Ae. albopictus and Cx. quinquefasciatus (100 each) were kept in a net cage (23 cm × 23 cm × 23 cm). Hands that had no contact with lotions, perfumes or perfumed soaps were exposed to the mosquito cage. Only 25 cm^2 dorsal side of the skin on each arm was exposed and the remaining area covered by rubber gloves. The tested substance was applied at several dosages, separately in the exposed area of the forearm. Acetone was served as control. The timing of the test depended on whether the tested mosquitoes were day or night biters. Ae.aegypti and Ae. albopictus were tested from 6 am to 9 am hours, while Cx. quinquefasciatus was tested from […] to 7 pm hours. Both control and treated arms were introduced simultaneously into the mosquito cage, and followed by gentle tapping on the sides of the experimental cages to activate the mosquitoes. Each test concentration was repeated four times. The volunteers conducted test for each concentration by inserting the treated and control arms into the same cage for one minute and repeated this action every five minutes. The mosquitoes that landed on the hand were recorded and then shaken off before imbibing any blood. The percentage of repellency was calculated by the following formula, %Repellency=[Ta−Tb/Ta]×100%,where
(§5) Ta: the number of mosquitoes in the control group.
(§6) Tb: the number of mosquitoes in the treated group.

[5] = system: blood-starved female Ae. albopictus; assay: as above; assay type: in vivo, Aedes albopictus; details: for % repellency: 300 μg/mL
Description: as §4, §5, §6

[6] = system: blood-starved female Cx. quinquefasciatus; assay: as above; assay type: in vivo, Culex quinquefasciatus
Description: as §4, §5, §6

[7] = molecular target: AChE extracted from Ae. aegypti larvae (Aedes aegypti, UniProt A4GND7); assay: Acetylcholinesterase inhibition assay (in vitro, modified Ellman); assay type: biochemical
Sequence of AChE extracted from Ae. aegypti larvae (A4GND7 37-679): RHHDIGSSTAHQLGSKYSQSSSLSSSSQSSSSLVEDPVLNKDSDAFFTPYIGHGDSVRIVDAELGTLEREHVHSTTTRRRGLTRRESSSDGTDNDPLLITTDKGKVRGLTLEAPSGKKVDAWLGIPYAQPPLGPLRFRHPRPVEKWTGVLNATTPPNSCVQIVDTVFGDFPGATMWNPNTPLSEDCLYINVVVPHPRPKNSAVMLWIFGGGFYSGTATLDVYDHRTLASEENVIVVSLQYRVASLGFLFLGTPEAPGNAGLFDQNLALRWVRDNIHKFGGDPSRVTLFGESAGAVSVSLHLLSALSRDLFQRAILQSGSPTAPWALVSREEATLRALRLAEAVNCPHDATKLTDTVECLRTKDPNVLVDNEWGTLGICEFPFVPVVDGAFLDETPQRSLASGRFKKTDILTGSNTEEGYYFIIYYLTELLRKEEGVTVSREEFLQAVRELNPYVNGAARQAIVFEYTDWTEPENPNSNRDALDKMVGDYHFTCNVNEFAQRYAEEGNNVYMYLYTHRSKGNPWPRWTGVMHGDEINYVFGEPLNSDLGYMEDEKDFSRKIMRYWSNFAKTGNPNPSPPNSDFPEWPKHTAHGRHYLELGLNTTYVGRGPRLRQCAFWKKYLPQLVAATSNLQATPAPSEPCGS
Description: (§7) For this experiments, the larvae were removed and homogenized at 0°C (keeping the homogenized mixture in plastic tube covered with ice) in 0.05 M-phosphate buffer, pH7.5 (KH2PO4-NaOH) (Merck, USA) by using a glass homogenizer with a polytetrafluoroethylene (PTFE) pestle (5%, w/v, homogenate). The homogenates were centrifuged for 20 min at 5°C and 16000 rpm. These supernatants were collected with pipette and kept inside the ice for studying the AChE inhibition biochemical assay.
(§8) To determine the IC50 values, procedures from Ellman et al., 1961 were modified and applied. Electronic multichannel pipette (Eppendorf, USA) was used to transfer exact 10 μL of enzyme solution to each well of a 96-well microtiter plate further mixed with 20 μL of tested compounds in solution form and 150 μL of cold phosphate buffer which were kept in refrigerator 1–4°C. The assay microtiter plates were incubated at 25°C for 10 min. Inhibitors were dissolved in DMSO (Merck, USA) in several concentration and stocks diluted to give a final concentration of 0.1% DMSO (v/v) were added into test well in separated rows. This was followed by adding 20 μL of acetylthiocholine iodide (ACTHI) (Sigma-Aldrich, USA) (0.4 mM) and DTNB (Sigma-Aldrich, USA) (0.3 mM) to enzyme solution to observe the reaction. Yellowish or colorless solution was observed during reaction for 30 minutes at room temperature. Changes in absorbance were recorded by a microplate readers (Synergy H1 Hybrid Multi-Mode Microplate Reader, USA) at 412 nm. Enzyme concentrations used were within the linear range of their toxicity activity.
(§9) %Inhibition=[Acon−Asam/Acon]×100%,where
(§10) Acon: the absorbance of the control
(§11) Asam: the absorbance of the test sample.
(§12) The IC50 was calculated by log-probit analysis using Polo Plus program. Another set of supernatant was loaded with 20 μL of ACTHI and DTNB solution only which served as control. The mean IC50 significant values were statistically determined by comparison of confident interval.

[8] = molecular target: AChE extracted from Ae. albopictus larvae (Aedes albopictus, UniProt Q2PGF2); assay: as above; assay type: biochemical
Sequence of AChE extracted from Ae. albopictus larvae (Q2PGF2 37-680): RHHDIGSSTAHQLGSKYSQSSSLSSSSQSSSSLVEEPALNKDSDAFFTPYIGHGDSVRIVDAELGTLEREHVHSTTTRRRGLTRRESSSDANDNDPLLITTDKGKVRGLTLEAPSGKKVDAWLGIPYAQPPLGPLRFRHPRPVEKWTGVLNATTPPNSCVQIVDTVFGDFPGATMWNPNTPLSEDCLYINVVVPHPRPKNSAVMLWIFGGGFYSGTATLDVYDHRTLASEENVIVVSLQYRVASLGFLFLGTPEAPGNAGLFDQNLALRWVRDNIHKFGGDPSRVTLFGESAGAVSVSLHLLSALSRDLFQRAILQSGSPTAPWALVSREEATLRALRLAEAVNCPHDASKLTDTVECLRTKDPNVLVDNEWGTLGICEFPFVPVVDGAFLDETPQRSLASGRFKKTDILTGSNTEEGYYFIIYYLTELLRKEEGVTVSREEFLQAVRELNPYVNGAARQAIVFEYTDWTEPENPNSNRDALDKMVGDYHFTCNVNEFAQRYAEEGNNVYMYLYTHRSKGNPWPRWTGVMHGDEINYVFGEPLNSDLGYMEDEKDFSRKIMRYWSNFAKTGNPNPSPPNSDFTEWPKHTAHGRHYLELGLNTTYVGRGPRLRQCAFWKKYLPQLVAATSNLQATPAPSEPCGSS
Description: as §7, §8, §9, §10, §11, §12

[9] = molecular target: AChE extracted from Cx. quinquefasciatus larvae (Culex quinquefasciatus, UniProt Q867X2); assay: as above; assay type: biochemical
Sequence of AChE extracted from Cx. quinquefasciatus larvae (Culex quinquefasciatus, UniProt Q867X2) (Q867X2 whole entry): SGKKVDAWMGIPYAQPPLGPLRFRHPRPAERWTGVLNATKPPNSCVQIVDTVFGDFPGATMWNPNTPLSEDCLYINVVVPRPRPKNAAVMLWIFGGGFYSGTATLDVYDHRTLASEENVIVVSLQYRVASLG
Description: as §7, §8, §9, §10, §11, §12

[10] = system: Ae. aegypti eggs; assay: Ovicidal activity (egg hatching); details: for mortality at 25 µg/mL: read-out: ovicidal activity (% of egg mortality), 25 μg/mL
[11] = system: Ae. albopictus eggs; assay: Ovicidal activity (egg hatching); details: for mortality at 25 µg/mL: read-out: ovicidal activity (% of egg mortality), 25 μg/mL
[12] = system: Cx. quinquefasciatus eggs; assay: Ovicidal activity (egg hatching); details: for mortality at 25 µg/mL: read-out: ovicidal activity (% of egg mortality), 25 μg/mL
[13] = system: AChE extracted from Cx. quinquefasciatus larvae; assay: Acetylcholinesterase inhibition assay (in vitro, modified Ellman); assay type: biochemical; details: Culex quinquefasciatus; 95% confidence interval in brackets; log-probit
Description: as §7, §8, §9, §10, §11, §12

[14] = Aedes albopictus, 48 h, 48 hours
[15] = Culex quinquefasciatus, 48 h, 48 hours
[16] = even at higher dosage of 100 μg/mL

Structure (SMILES)	dosage that can cause 50% mortality [1] [µg/mL]	dosage that can cause 50% mortality [2] [µg/mL]	% larvae mortality ([2]; ≤ 9.3 μg/mL)	mortality at 9.3 µg/mL [3] [%]	dosage that can cause 50% mortality [3] [µg/mL]	% repellency [4]	repellent activity (in words) ([4]; 50 to 150 μg/mL)	% repellency [5]	repellent activity (in words) ([5]; 50 to 150 μg/mL)	repellent activity (in words) ([6]; 50 to 150 μg/mL)	Slope ± S.E of log-probit AChE inhibition curve [7]	Slope ± S.E of log-probit AChE inhibition curve [8]	Slope ± S.E of log-probit AChE inhibition curve [9]	mortality at 25 µg/mL ([10]; Aedes aegypti, 48 h, 48 hours) [%]	mortality at 25 µg/mL [11, 14] [%]	mortality at 25 µg/mL [12, 15] [%]	further results
C=CCc1cc2c(cc1OC)OCO2 [Asaricin 1, asaricin]	≤ 7	≤ 7	≤ 90%	≤ 80	≤ 7	below 65%	very weak	below 65%	very weak	very weak	2.07±0.13	2.25±0.14	2.50±0.14	≤ 95	≤ 95	≤ 95	% larvae mortality ([2]; ≤ 15 μg/mL): up to 100%; % larvae mortality ([2]; ≤ 15 μg/mL, listed as asaricin 1): 100%; % larvae mortality [3]: up to 100%; % larvae mortality ([3]; listed as asaricin 1): 100%; % repellency ([6]; 300 μg/mL): below 65%
C=CCc1cc(OC)c(OC)cc1OC [Isoasarone 2, isoasarone]	≤ 7	≤ 7	≤ 90%	≤ 80	≤ 7	below 55%	very weak	below 55%	very weak	very weak	2.41±0.15	2.57±0.14	2.29±0.13	≤ 95	≤ 95	≤ 95	mortality at 20 µg/mL ([10]; Aedes aegypti, 48 h, read-out: ovicidal activity (% of egg mortality), 20 μg/mL, 48 hours): 80 to 90%; mortality at 20 µg/mL ([11]; Aedes albopictus, 48 h, read-out: ovicidal activity (% of egg mortality), 20 μg/mL, 48 hours): 80 to 90%; mortality at 20 µg/mL ([12]; Culex quinquefasciatus, 48 h, read-out: ovicidal activity (% of egg mortality), 20 μg/mL, 48 hours): 80 to 90%
C/C=C/c1cc(OC)c(OC)cc1OC [Trans-asarone 3, trans-asarone]			5–20%	5 to 20							3.63±0.14	2.00±0.16	2.46±0.13				% larvae mortality ([1]; ≤ 9.3 μg/mL): 5–20%; repellent activity (in words) ([4]; in vivo): not significant; repellent activity (in words) ([5]; in vivo): not significant; repellent activity (in words) ([6]; in vivo): not significant; AChE enzyme inhibition IC50 [13]: 17.4(12.6 to 24.4) μg/mL; effect on egg hatchability [10, 16]: no effect; effect on egg hatchability [11, 16]: no effect; effect on egg hatchability [12, 16]: no effect
